Source: publication PMC3914206

Experiments:
Type in all cases: binding
Settings in all cases: Compound Concentration 10 µM
panel of 442 kinases [1] = target: T1, panel of 442 kinases (Homo sapiens, UniProt Q8TD08)
T1 construct: purchased KINOMEscan
T1 sequence (Q8TD08 1-544): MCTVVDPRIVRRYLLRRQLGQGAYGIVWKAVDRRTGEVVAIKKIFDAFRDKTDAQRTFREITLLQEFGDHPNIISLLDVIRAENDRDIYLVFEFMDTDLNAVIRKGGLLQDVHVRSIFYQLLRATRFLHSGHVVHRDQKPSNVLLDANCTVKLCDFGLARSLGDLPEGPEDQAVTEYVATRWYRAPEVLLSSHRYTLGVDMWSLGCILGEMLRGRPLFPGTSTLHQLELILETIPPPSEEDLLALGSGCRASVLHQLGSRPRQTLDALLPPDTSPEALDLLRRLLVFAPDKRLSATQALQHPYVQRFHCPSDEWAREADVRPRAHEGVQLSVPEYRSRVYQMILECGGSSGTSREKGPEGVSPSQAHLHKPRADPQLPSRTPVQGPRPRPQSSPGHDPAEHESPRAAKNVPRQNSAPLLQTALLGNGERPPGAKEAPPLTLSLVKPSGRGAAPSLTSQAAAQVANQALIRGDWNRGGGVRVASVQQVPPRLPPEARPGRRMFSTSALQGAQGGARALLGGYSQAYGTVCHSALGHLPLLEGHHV
Excerpt: (§1) We assessed the selectivity of members of this scaffold using the KINOMEscan methodology across a near comprehensive panel of 442 kinases [[18,27]].

panel of 442 kinases [2] = target: T2, panel of 442 kinases (Homo sapiens, UniProt P10721, L576P)
T2 construct: purchased KINOMEscan
Excerpt: as §1

panel of 442 kinases [3] = target: T3, panel of 442 kinases (Homo sapiens, UniProt P22607, G697C)
T3 construct: purchased KINOMEscan
Excerpt: as §1

T2 sequence (P10721 26-976 L576P): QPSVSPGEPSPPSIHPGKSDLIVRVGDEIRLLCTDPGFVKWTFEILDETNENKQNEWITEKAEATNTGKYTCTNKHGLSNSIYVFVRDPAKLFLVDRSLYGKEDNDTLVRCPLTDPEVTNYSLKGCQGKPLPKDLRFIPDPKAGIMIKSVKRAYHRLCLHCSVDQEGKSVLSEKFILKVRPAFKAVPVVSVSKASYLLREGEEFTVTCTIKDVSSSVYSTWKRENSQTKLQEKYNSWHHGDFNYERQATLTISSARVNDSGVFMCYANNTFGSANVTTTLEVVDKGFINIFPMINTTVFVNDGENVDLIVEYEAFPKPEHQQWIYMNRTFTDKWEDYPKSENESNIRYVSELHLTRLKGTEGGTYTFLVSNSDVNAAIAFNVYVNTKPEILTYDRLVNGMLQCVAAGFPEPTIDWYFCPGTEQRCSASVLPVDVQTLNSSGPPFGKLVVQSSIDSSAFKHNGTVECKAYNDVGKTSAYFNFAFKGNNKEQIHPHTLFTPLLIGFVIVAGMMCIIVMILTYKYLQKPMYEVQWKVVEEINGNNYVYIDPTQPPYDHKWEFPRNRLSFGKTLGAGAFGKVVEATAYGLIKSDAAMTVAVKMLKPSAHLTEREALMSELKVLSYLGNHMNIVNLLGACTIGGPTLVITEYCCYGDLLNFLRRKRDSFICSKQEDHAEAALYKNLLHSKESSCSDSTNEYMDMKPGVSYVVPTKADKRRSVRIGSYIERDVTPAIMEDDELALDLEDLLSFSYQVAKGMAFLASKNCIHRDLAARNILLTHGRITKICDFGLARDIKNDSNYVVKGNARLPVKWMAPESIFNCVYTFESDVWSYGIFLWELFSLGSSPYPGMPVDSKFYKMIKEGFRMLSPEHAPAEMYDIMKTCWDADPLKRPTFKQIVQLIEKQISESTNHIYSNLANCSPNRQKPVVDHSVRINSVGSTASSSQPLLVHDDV
T3 sequence (P22607 23-806 G697C): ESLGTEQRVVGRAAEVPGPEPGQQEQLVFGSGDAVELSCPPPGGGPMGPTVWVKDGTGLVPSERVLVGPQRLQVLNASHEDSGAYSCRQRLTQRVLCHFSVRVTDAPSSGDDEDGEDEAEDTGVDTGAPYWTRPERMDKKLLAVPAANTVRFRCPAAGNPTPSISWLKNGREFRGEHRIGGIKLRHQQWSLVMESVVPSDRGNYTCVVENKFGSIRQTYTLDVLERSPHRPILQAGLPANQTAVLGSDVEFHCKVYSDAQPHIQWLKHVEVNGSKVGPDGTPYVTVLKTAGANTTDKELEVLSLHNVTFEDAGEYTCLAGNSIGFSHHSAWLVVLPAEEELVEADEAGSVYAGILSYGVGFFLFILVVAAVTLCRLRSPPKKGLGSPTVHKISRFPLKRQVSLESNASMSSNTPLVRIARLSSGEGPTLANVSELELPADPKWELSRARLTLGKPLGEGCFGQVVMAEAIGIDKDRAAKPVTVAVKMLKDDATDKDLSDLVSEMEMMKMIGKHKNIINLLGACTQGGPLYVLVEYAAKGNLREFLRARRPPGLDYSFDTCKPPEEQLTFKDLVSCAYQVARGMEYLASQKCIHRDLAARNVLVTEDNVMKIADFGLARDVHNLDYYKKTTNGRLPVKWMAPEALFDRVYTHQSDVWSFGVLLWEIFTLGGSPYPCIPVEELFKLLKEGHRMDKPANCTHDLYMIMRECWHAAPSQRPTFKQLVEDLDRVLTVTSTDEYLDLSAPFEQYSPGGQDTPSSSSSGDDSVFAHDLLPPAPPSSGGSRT

COc1cc(C(=O)N2CCC(N3CCN(C)CC3)CC2)ccc1Nc1ncc2c(n1)N(C)c1ccccc1C(=O)N2C [15 (LRRK2-IN-1)] was tested, and the “KINOMEscan: ERK8” value (panel of 442 kinases [1]) was 100, the “KINOMEscan: KIT(L576P)” value (panel of 442 kinases [2]) was 100 and the “KINOMEscan: FGFR3(G697C)” value (panel of 442 kinases [3]) was 85.

In the case of COc1cc(C(=O)N2CCC(N3CCN(C)CC3)CC2)ccc1Nc1ncc2c(n1)N1CCc3cccc(c31)C(=O)N2C [Compound 24], the “KINOMEscan: FGFR3(G697C)” value (panel of 442 kinases [3]) was 80.

With COc1cc(C(=O)N2CCC(N3CCN(C)CC3)CC2)ccc1Nc1ncc2c(n1)N(C1CCCC1)c1ccccc1C(=O)N2C [Compound 25, 11-cyclopentyl-2-((2-methoxy-4-(4-(4-methylpiperazin-1-yl)piperidine-1-carbonyl)phenyl)amino)-5-methyl-5H-benzo[e]pyrimido[5,4-b][1,4]diazepin-6(11H)-one] the “KINOMEscan: ERK8” value (panel of 442 kinases [1]) was 99, the “KINOMEscan: KIT(L576P)” value (panel of 442 kinases [2]) was 93 and the “KINOMEscan: FGFR3(G697C)” value (panel of 442 kinases [3]) was 100.

With CCOc1cc(C(=O)N2CCC(N3CCN(C)CC3)CC2)ccc1Nc1ncc2c(n1)N(C1CCCC1)c1ccccc1C(=O)N2C [Compound 26] the “KINOMEscan: ERK8” value (panel of 442 kinases [1]) was 100, the “KINOMEscan: KIT(L576P)” value (panel of 442 kinases [2]) was 100 and the “KINOMEscan: FGFR3(G697C)” value (panel of 442 kinases [3]) was 100.
